# In PubChem BioAssay (NCI):
#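 Tested at 5 concentrations; 48 h exposure; 96-well plates; endpoints linearly interpolated, else capped at highest concentration. At the TGI there is no net growth.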
# How the values were obtained:
# Assay in all cases: NCI tumour cell line growth inhibition, 48 h
# [1] = system: OVCAR-8 ovarian
# [2] = system: A498 renal
# [3] = system: IGROV1 ovarian
# [4] = system: HCT-15 colon
# [5] = system: T-47D breast
# [6] = system: NCI-H460 lung
# [7] = system: OVCAR-3 ovarian
# [8] = system: OVCAR-5 ovarian
# [9] = system: RPMI-8226 leukemia
# [10] = system: ACHN renal
# [11] = system: HOP-92 NSCLC
# [12] = system: HT29 colon
# [13] = system: SR leukemia
# [14] = system: SK-OV-3 ovarian
# [15] = system: U251 CNS
# [16] = system: SK-MEL-5 melanoma
# [17] = system: EKVX NSCLC
# [18] = system: SNB-19 CNS
# [19] = system: MDA-MB-435
# [20] = system: MCF7 breast
# [21] = system: OVCAR-4 ovarian
# [22] = system: SF-539 CNS
# [23] = system: NCI/ADR-RES ovarian
# [24] = system: BT-549 breast
# [25] = system: SK-MEL-2 melanoma
# [26] = system: MDA-MB-231 breast
# [27] = system: HCT-116 colon
# [28] = system: SN12C renal
# [29] = system: DU-145 prostate
# [30] = system: MDA-N
# [31] = system: SNB-75 CNS
# [32] = system: SF-295 CNS
# [33] = system: HCC-2998 colon
# [34] = system: HS 578T breast
# [35] = system: SW-620 colon
# [36] = system: M14 melanoma
# [37] = system: MALME-3M melanoma
# [38] = system: UACC-62 melanoma
# [39] = system: UO-31 renal
# [40] = system: CAKI-1 renal
# [41] = system: HOP-62 NSCLC
# [42] = system: PC-3 prostate
# [43] = system: 786-0 renal
# [44] = system: KM12 colon
# [45] = system: UACC-257 melanoma
# [46] = system: NCI-H23 lung
# [47] = system: MOLT-4 leukemia
# [48] = system: SK-MEL-28 melanoma
# [49] = system: LOX IMVI melanoma
# [50] = system: NCI-H226 lung
# [51] = system: TK-10 renal
# [52] = system: A549 NSCLC
# [53] = system: RXF 393 renal
# [54] = system: COLO 205 colon
# [55] = system: SF-268 CNS
# [56] = system: K-562 leukemia
# [57] = system: NCI-H522 lung
# [58] = system: HL-60(TB) leukemia
smiles,measurement,setting,value
N#CC1(C#N)C2=C(CCCC2)NC(c2ccc(Br)cc2)C1(C#N)C#N (centres undefined),TGI,[1],11.5 µM
same,TGI,[2],37.5 µM
same,TGI,[3],9.24 µM
same,TGI,[4],9.85 µM
same,TGI,[5],5.41 µM
same,TGI,[6],63.6 µM
same,TGI,[7],18.2 µM
same,TGI,[8],24.9 µM
same,TGI,[9],15.8 µM
same,TGI,[10],3.88 µM
same,TGI,[11],18.9 µM
same,TGI,[12],10.1 µM
same,TGI,[13],5.56 µM
same,TGI,[14],> 56.4 µM
same,TGI,[15],26.8 µM
same,TGI,[16],28.8 µM
same,TGI,[17],25.3 µM
same,TGI,[18],30.1 µM
same,TGI,[19],9.05 µM
same,TGI,[20],19.9 µM
same,TGI,[21],20.7 µM
same,TGI,[22],31.6 µM
same,TGI,[23],> 100 µM
same,TGI,[24],26.9 µM
same,TGI,[25],34.1 µM
same,TGI,[26],23.9 µM
same,TGI,[27],4.15 µM
same,TGI,[28],7.06 µM
same,TGI,[29],25.1 µM
same,TGI,[30],14 µM
same,TGI,[31],30.8 µM
same,TGI,[32],56.5 µM
same,TGI,[33],46.4 µM
same,TGI,[34],44.6 µM
same,TGI,[35],2.88 µM
same,TGI,[36],7.04 µM
same,TGI,[37],3.83 µM
same,TGI,[38],32.4 µM
same,TGI,[39],3.03 µM
same,TGI,[40],4.99 µM
same,TGI,[41],35.7 µM
same,TGI,[42],26.8 µM
same,TGI,[43],3.75 µM
same,TGI,[44],29.4 µM
same,TGI,[45],11.5 µM
same,TGI,[46],30.3 µM
same,TGI,[47],15.7 µM
same,TGI,[48],25.9 µM
same,TGI,[49],6.93 µM
same,TGI,[50],39 µM
same,TGI,[51],16 µM
same,TGI,[52],30.9 µM
same,TGI,[53],6.15 µM
same,TGI,[54],2.58 µM
same,TGI,[55],24.7 µM
same,TGI,[56],12 µM
same,TGI,[57],3.06 µM
CC(C)(N=NC(C)(C)C(=N)N)C(=N)N,TGI,[1],> 100 µM
same,TGI,[2],> 100 µM
same,TGI,[3],> 100 µM
same,TGI,[4],> 100 µM
same,TGI,[5],> 100 µM
same,TGI,[6],> 100 µM
same,TGI,[7],> 100 µM
same,TGI,[8],> 100 µM
same,TGI,[9],> 100 µM
same,TGI,[10],> 100 µM
same,TGI,[11],> 100 µM
same,TGI,[12],> 100 µM
same,TGI,[13],> 100 µM
same,TGI,[14],> 100 µM
same,TGI,[15],> 100 µM
same,TGI,[16],> 100 µM
same,TGI,[17],> 100 µM
same,TGI,[18],> 100 µM
same,TGI,[19],> 100 µM
same,TGI,[20],> 100 µM
same,TGI,[21],> 100 µM
same,TGI,[22],> 100 µM
same,TGI,[23],> 100 µM
same,TGI,[24],> 100 µM
same,TGI,[25],> 100 µM
same,TGI,[26],> 100 µM
same,TGI,[27],> 100 µM
same,TGI,[28],> 100 µM
same,TGI,[29],> 100 µM
same,TGI,[30],> 100 µM
same,TGI,[31],> 100 µM
same,TGI,[32],> 100 µM
same,TGI,[33],> 100 µM
same,TGI,[34],> 100 µM
same,TGI,[35],> 100 µM
same,TGI,[36],> 100 µM
same,TGI,[38],> 100 µM
same,TGI,[39],> 100 µM
same,TGI,[40],> 100 µM
same,TGI,[41],> 100 µM
same,TGI,[42],> 100 µM
same,TGI,[43],> 100 µM
same,TGI,[44],> 100 µM
same,TGI,[45],> 100 µM
same,TGI,[58],> 100 µM
same,TGI,[46],> 100 µM
same,TGI,[47],> 100 µM
same,TGI,[48],> 100 µM
same,TGI,[49],> 100 µM
same,TGI,[50],> 100 µM
same,TGI,[51],> 100 µM
same,TGI,[52],> 100 µM
same,TGI,[53],> 100 µM
same,TGI,[54],> 100 µM
same,TGI,[55],> 100 µM
same,TGI,[56],> 100 µM
same,TGI,[57],> 100 µM
